Measured values from US20240368173A1, “TRICYCLIC GPR65 MODULATORS” (PATHIOS THERAPEUTICS LIMITED, priority 2021, published 2024).

These molecules were tested against human recombinant GPR65 (Homo sapiens, UniProt Q8IYL9) (assay: Human GPR65 cAMP HTRF antagonist assay). Settings: not given.
Chain of human recombinant GPR65 (Q8IYL9 whole entry): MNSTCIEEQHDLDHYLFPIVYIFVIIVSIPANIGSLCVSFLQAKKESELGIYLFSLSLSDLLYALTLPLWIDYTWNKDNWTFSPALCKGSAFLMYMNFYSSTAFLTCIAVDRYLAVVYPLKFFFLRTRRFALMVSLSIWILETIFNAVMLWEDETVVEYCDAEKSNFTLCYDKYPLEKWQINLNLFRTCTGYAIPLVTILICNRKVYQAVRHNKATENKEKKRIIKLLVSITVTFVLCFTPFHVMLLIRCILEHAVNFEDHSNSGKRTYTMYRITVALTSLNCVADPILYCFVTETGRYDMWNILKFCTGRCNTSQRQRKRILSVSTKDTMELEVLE
Assay type: cell-based
How it was run: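 1321N1 astrocytoma cells stably expressing hrGPR65, with IBMX and EDTA, were preincubated with compound 30 min at room temperature, then acid-activated at assay pH 7.2 (control pH 7.9) for 30 min. cAMP read by HTRF (665/620 nm ratio); IC50 from 4-parameter fit normalised to high/low controls.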
Molecule N#Cc1nccc2c1C[C@@H]1CC[C@H]2N1C(=O)Nc1cc(Cl)c(Cl)cc1F [Compound 92, (5R,8S)-1-Cyano-N-(4,5-dichloro-2-fluorophenyl)-6,7,8,9-tetrahydro-5H-5,8-epiminocyclohepta[c]pyridine-10-carboxamide] has an IC50 of under 0.5 µM. With COc1cnc(F)c2c1[C@H]1CC[C@@H](C2)N1C(=O)Nc1cc(Cl)c(Cl)cc1F [Compound 96, (5R,8S)-N-(4,5-Dichloro-2-fluorophenyl)-1-fluoro-4-methoxy-6,7,8,9-tetrahydro-5H-5,8-epiminocyclohepta[c]pyridine-10-carboxamide] the IC50 was under 0.5 µM. Work on COc1cnc(F)c2c1[C@H]1CC[C@@H](C2)N1C(=O)Nc1cc(Cl)c(C(F)(F)F)cc1F [Compound 97, (5R,8S)-N-(5-Chloro-2-fluoro-4-(trifluoromethyl)phenyl)-1-fluoro-4-methoxy-6,7,8,9-tetrahydro-5H-5,8-epiminocyclohepta[c]pyridine-10-carboxamide] yielded an IC50 of under 0.5 µM. In the case of O=C(Nc1cc(Cl)c(Cl)cc1F)N1[C@H]2CC[C@@H]1c1ncc(F)cc1C2 [Compound 98, (6S,9R)-N-(4,5-Dichloro-2-fluorophenyl)-3-fluoro-6,7,8,9-tetrahydro-5H-6,9-epiminocyclohepta[b]pyridine-10-carboxamide], the IC50 is reported as under 0.5 µM. O=C(Nc1cc(Cl)c(Cl)cc1F)N1[C@H]2CC[C@@H]1c1c(Cl)cnc(F)c1C2 [Compound 100, (5R,8S)-4-Chloro-N-(4,5-dichloro-2-fluorophenyl)-1-fluoro-6,7,8,9-tetrahydro-5H-5,8-epiminocyclohepta[c]pyridine-10-carboxamide] showed an IC50 of under 0.5 µM. O=C(Nc1cc(Cl)c(Cl)cc1F)N1[C@H]2CC[C@@H]1c1c(OCc3ccccc3)cnc(F)c1C2 [Compound 102, (5R,8S)-4-(benzyloxy)-N-(4,5-dichloro-2-fluorophenyl)-1-fluoro-6,7,8,9-tetrahydro-5H-5,8-epiminocyclohepta[c]pyridine-10-carboxamide] showed an IC50 of under 0.5 µM. In the case of C[C@@]12CC[C@@H](Cc3c1ccnc3F)N2C(=O)Nc1cc(Cl)c(Cl)cc1F [Compound 103, (5R,8S)-N-(4,5-Dichloro-2-fluorophenyl)-1-fluoro-5-methyl-6,7,8,9-tetrahydro-5H-5,8-epiminocyclohepta[c]pyridine-10-carboxamide], the IC50 is reported as under 0.5 µM. With O=C(Nc1cc(Cl)c(Cl)cc1F)N1[C@H]2CC[C@@H]1c1c(O)cnc(F)c1C2 [Compound 104, (5R,8S)—N-(4,5-Dichloro-2-fluorophenyl)-1-fluoro-4-hydroxy-6,7,8,9-tetrahydro-5H-5,8-epiminocyclohepta[c]pyridine-10-carboxamide] the IC50 was under 0.5 µM. COCCCOc1cnc(F)c2c1[C@H]1CC[C@@H](C2)N1C(=O)Nc1cc(Cl)c(Cl)cc1F [Compound 105, (5R,8S)—N-(4,5-Dichloro-2-fluorophenyl)-1-fluoro-4-(3-methoxypropoxy)-6,7,8,9-tetrahydro-5H-5,8-epiminocyclohepta[c]pyridine-10-carboxamide] was tested, and the IC50 was under 0.5 µM. In the case of C=C1c2ccnc(F)c2[C@H]2CC[C@@H]1N2C(=O)Nc1cc(Cl)c(Cl)cc1F [Compound 106, (6S,9R)-N-(4,5-Dichloro-2-fluorophenyl)-1-fluoro-5-methylene-6,7,8,9-tetrahydro-5H-6,9-epiminocyclohepta[c]pyridine-10-carboxamide], the IC50 is reported as 0.5 to 5 µM. O=C(Nc1cc(Cl)c(-c2ccc3nonc3c2)cc1F)N1[C@H]2CC[C@@H]1c1n[nH]c(=O)cc1C2 [Compound 108, (6S,9R)-N-(4-(Benzo[c][1,2,5]oxadiazol-5-yl)-5-chloro-2-fluorophenyl)-3-oxo-3,5,6,7,8,9-hexahydro-2H-6,9-epiminocyclohepta[c]pyridazine-10-carboxamide] showed an IC50 of under 0.5 µM. In the case of O=C(Nc1cc(Cl)c(-c2ccc(F)nc2)cc1F)N1[C@H]2CC[C@@H]1c1n[nH]c(=O)cc1C2 [Compound 109, (6S,9R)-N-(5-Chloro-2-fluoro-4-(6-fluoropyridin-3-yl)phenyl)-3-oxo-3,5,6,7,8,9-hexahydro-2H-6,9-epiminocyclohepta[c]pyridazine-10-carboxamide], the IC50 is reported as under 0.5 µM. Molecule O=C(Nc1cc(C(F)(F)F)on1)N1[C@H]2CC[C@@H]1c1n[nH]c(=O)cc1C2 [Compound 110, (6S,9R)-3-Oxo-N-(5-(trifluoromethyl)isoxazol-3-yl)-3,5,6,7,8,9-hexahydro-2H-6,9-epiminocyclohepta[c]pyridazine-10-carboxamide] has an IC50 of under 0.5 µM. With N#Cc1cc(F)c(NC(=O)N2[C@H]3CC[C@@H]2c2n[nH]c(=O)cc2C3)cc1Cl [Compound 111, (6S,9R)-N-(5-Chloro-4-cyano-2-fluorophenyl)-3-oxo-3,5,6,7,8,9-hexahydro-2H-6,9-epiminocyclohepta[c]pyridazine-10-carboxamide] the IC50 was under 0.5 µM. Work on N#Cc1cc(NC(=O)N2[C@H]3CC[C@@H]2c2n[nH]c(=O)cc2C3)c(F)cc1Cl [Compound 112, (6S,9R)-N-(4-Chloro-5-cyano-2-fluorophenyl)-3-oxo-3,5,6,7,8,9-hexahydro-2H-6,9-epiminocyclohepta[c]pyridazine-10-carboxamide] yielded an IC50 of under 0.5 µM. O=C(Nc1cc(Cl)c(-c2ccccc2)cc1F)N1[C@H]2CC[C@@H]1c1n[nH]c(=O)cc1C2 [Compound 113, (6S,9R)-N-(2-Chloro-5-fluoro-[1,1′-biphenyl]-4-yl)-3-oxo-3,5,6,7,8,9-hexahydro-2H-6,9-epiminocyclohepta[c]pyridazine-10-carboxamide] gave an IC50 of under 0.5 µM. COc1cncc(-c2cc(F)c(NC(=O)N3[C@H]4CC[C@@H]3c3n[nH]c(=O)cc3C4)cc2Cl)c1 [Compound 114, (6S,9R)—N-(5-Chloro-2-fluoro-4-(5-methoxypyridin-3-yl)phenyl)-3-oxo-3,5,6,7,8,9-hexahydro-2H-6,9-epiminocyclohepta[c]pyridazine-10-carboxamide] was tested, and the IC50 was under 0.5 µM. For O=C(Nc1cc(Cl)c(-c2cccnc2F)cc1F)N1[C@H]2CC[C@@H]1c1n[nH]c(=O)cc1C2 [Compound 115, (6S,9R)—N-(5-Chloro-2-fluoro-4-(2-fluoropyridin-3-yl)phenyl)-3-oxo-3,5,6,7,8,9-hexahydro-2H-6,9-epiminocyclohepta[c]pyridazine-10-carboxamide], the IC50 was under 0.5 µM. In the case of Cn1ncc2c(-c3cc(F)c(NC(=O)N4[C@H]5CC[C@@H]4c4n[nH]c(=O)cc4C5)cc3Cl)cccc21 [Compound 120, (6S,9R)-N-(5-Chloro-2-fluoro-4-(1-methyl-1H-indazol-4-yl)phenyl)-3-oxo-3,5,6,7,8,9-hexahydro-2H-6,9-epiminocyclohepta[c]pyridazine-10-carboxamide], the IC50 is reported as under 0.5 µM. For COCCNc1ncc(-c2cc(F)c(NC(=O)N3[C@H]4CC[C@@H]3c3n[nH]c(=O)cc3C4)cc2Cl)cn1 [Compound 121, (6S,9R)-N-(5-Chloro-2-fluoro-4-(2-((2-methoxyethyl)amino)pyrimidin-5-yl)phenyl)-3-oxo-3,5,6,7,8,9-hexahydro-2H-6,9-epiminocyclohepta[c]pyridazine-10-carboxamide], the IC50 was under 0.5 µM.

Same assay, conditions: 1321N1-hrGPR65 cells, cAMP HTRF, assay pH 7.2; read-out: hGPR65 IC50 (Activity of selected compounds according to the invention)
Work on O=C(Nc1cc(Cl)c(Cl)cc1F)N1[C@H]2CC[C@@H]1c1ccnc(OC(F)F)c1C2 [Compound 93, (5R,8S)-N-(4,5-dichloro-2-fluorophenyl)-1-(difluoromethoxy)-6,7,8,9-tetrahydro-5H-5,8-epiminocyclohepta[c]pyridine-10-carboxamide] yielded an IC50 of 0.5 to 5 µM. With O=C(Nc1cc(Cl)c(Cl)cc1F)N1[C@@H]2CC[C@H]1c1ncc(F)cc1C2 [Compound 95, (6R,9S)-N-(4,5-Dichloro-2-fluorophenyl)-3-fluoro-6,7,8,9-tetrahydro-5H-6,9-epiminocyclohepta[b]pyridine-10-carboxamide] the IC50 was over 5 µM. For O=C(Nc1cc(Cl)c(Cl)cc1F)N1[C@H]2CC[C@@H]1c1c(F)ncc(Cl)c1C2 [Compound 99, (6S,9R)-4-Chloro-N-(4,5-dichloro-2-fluorophenyl)-1-fluoro-6,7,8,9-tetrahydro-5H-6,9-epiminocyclohepta[c]pyridine-10-carboxamide], the IC50 was 0.5 to 5 µM. With O=C(Nc1cc(Cl)c(Cl)cc1F)N1[C@H]2CC[C@@H]1c1c(C#CCO)cnc(F)c1C2 [Compound 107, (5R,8S)—N-(4,5-Dichloro-2-fluorophenyl)-1-fluoro-4-(3-hydroxyprop-1-yn-1-yl)-6,7,8,9-tetrahydro-5H-5,8-epiminocyclohepta[c]pyridine-10-carboxamide] the IC50 was 0.5 to 5 µM. With O=C(Nc1cc(-c2cccnc2F)c(-c2cccnc2F)cc1F)N1[C@H]2CC[C@@H]1c1n[nH]c(=O)cc1C2 [Compound 116, (6S,9R)-N-(2-Fluoro-4,5-bis(2-fluoropyridin-3-yl)phenyl)-3-oxo-3,5,6,7,8,9-hexahydro-2H-6,9-epiminocyclohepta[c]pyridazine-10-carboxamide] the IC50 was 0.5 to 5 µM. CC(=O)Nc1ccc(-c2cc(F)c(NC(=O)N3[C@H]4CC[C@@H]3c3n[nH]c(=O)cc3C4)cc2Cl)cn1 [Compound 117, (6S,9R)-N-(4-(6-Acetamidopyridin-3-yl)-5-chloro-2-fluorophenyl)-3-oxo-3,5,6,7,8,9-hexahydro-2H-6,9-epiminocyclohepta[c]pyridazine-10-carboxamide] was tested, and the IC50 was 0.5 to 5 µM. Nc1ccc(-c2cc(F)c(NC(=O)N3[C@H]4CC[C@@H]3c3n[nH]c(=O)cc3C4)cc2Cl)cn1 [Compound 118, (6S,9R)-N-(4-(6-Aminopyridin-3-yl)-5-chloro-2-fluorophenyl)-3-oxo-3,5,6,7,8,9-hexahydro-2H-6,9-epiminocyclohepta[c]pyridazine-10-carboxamide] was tested, and the IC50 was 0.5 to 5 µM. Work on O=C(Nc1cc(Cl)c(-c2cn[nH]c2)cc1F)N1[C@H]2CC[C@@H]1c1n[nH]c(=O)cc1C2 [Compound 119, (6S,9R)-N-(5-Chloro-2-fluoro-4-(1H-pyrazol-4-yl)phenyl)-3-oxo-3,5,6,7,8,9-hexahydro-2H-6,9-epiminocyclohepta[c]pyridazine-10-carboxamide] yielded an IC50 of over 5 µM.
